System: 565232-114-T-J1-PDC complex spheroid viability
Assay: Anticancer human tumor 565232-114-T-J1-PDC patient-derived bladder carcinoma cell line growth inhibition [CLK]
Conditions: for IC50: curve of first compound; for viability, T/C: stronger effect = lower value
Description: A high-throughput screen of multi-cell type tumor spheroids was designed to identify active combinations of […] and targeted small molecules. Complex spheroids include a stromal component modeled by human endothelial cells (HUVEC) and fibroblasts modeled by human mesenchymal stem cells (MSCs). The concentration ranges selected for each drug and investigational agent were based upon clinically achievable concentrations if the clinical Cmax of the agent was known.
Compounds. The drugs and investigational agents: cirtuvivint (SM08502; NSC835563), CC-671 (NSC850746), vemurafenib (NSC761431), tapotoclax (NSC804041), sotorasib (NSC818433), adagrasib (NSC831453), MRTX-1133 (NSC836407), BAY2416964 (NSC825713), copanlisib (NSC816437), inavolisib (NSC800729), abemaciclib (NSC768073), osimertinib (NSC779217), entinostat (NSC756642), eltanexor (KPT-8602, NSC794443), venetoclax (NSC766270), ceralasertib (NSC777638), bortezomib (NSC756655), olaparib (NSC753686), talazoparib (NSC767125), alisertib (NSC759677), peposertib (NSC802822), gemcitabine (NSC613327), 5-fluorouracil (NSC19893), SN-38 (NSC673596), oxaliplatin (NSC266046), paclitaxel (NSC125973), and doxorubicin (NSC123127), were obtained from the National Cancer Institute (NCI) Developmental Therapeutics Program Chemical Repository. The FDA-approved anticancer drug set is available from the Developmental Therapeutics Program at https://dtp.cancer.gov/organization/dscb/obtaining/available plates.htm. […] The stock solutions were prepared in dimethyl sulfoxide (DMSO, Sigma-Aldrich, St. Louis, MO, cat. D2650), except for the platinum complexes which were prepared in saline (Quality Biological, Gaithersburg, MD, cat. 114-055-101), at 800-fold the tested concentration and stored at -70 degrees C prior to their use. All drugs and investigational agents were tested over a range starting from a high concentration at or near the clinical Cmax and decreasing in half-log increments. If the clinical Cmax for an agent had not been determined, the highest concentration tested was 10 microM.
Cell Culture. All cells were maintained in an incubator at 37 degrees C and 5% CO2 with 95% humidity. The PDC lines were cultured according to standard operating procedures established by the NCI PDMR. Briefly, all PDCs were thawed and cultured in Matrigel-coated flasks prepared with a working solution of 1X Ham's F-12 nutrient mix, without supplementation (Invitrogen, Waltham, MA, cat. 11765054), 100 U/mL penicillin-streptomycin (Invitrogen, cat. 15140122), and 2.5% Matrigel (Corning Inc., Corning, NY, cat. 354248) for the first three passages. The 947758-054-R-J2-PDC line was cultured in 6B/Colon 1A media, which includes advanced DMEM/F-12 (Thermo Fisher Scientific, cat. 12634028), 10 mM HEPES (Thermo Fisher Scientific, cat. 15630080), 1X GlutaMAX supplement (Thermo Fisher Scientific, cat. 35050061), 0.1 mg/mL primocin (InvivoGen, cat. ant-pm-2), 10% defined fetal bovine serum, heat inactivated (HyClone Laboratories Inc., cat. SH30070.03HI), 1.25 mM N-Acetyl-L-cysteine (Sigma-Aldrich, cat. A9165), 10 mM nicotinamide (Sigma-Aldrich, cat. N0636), 1X B-27 supplement (Thermo Fisher Scientific, cat. 17504044), 1X N-2 supplement (Thermo Fisher Scientific, cat. 17502048), and 10 microM Y-27632 dihydrochloride (Tocris Bioscience, cat. 1254). The 876862-298-R-J1-PDC was cultured in 6E media, which includes all 6B/Colon 1A media components plus 50% L-WRN conditioned media (ATCC, cat. CRL-3276), 50 ng/mL recombinant human EGF recombinant protein (hEGF; Thermo Fisher Scientific, cat. PHG0311), 10 ng/mL recombinant human fibroblast growth factor 10 (hGFG-10; PeproTech, cat. 100-26), 1 ng/mL recombinant human fibroblast growth factor 2 (hFGF-2; PeproTech, cat. 100-18B), and 1 µM prostaglandin E2 (PGE2; Tocris, cat. 2296). The 227483-062-R1-J1-PDC line was cultured in Panc media, containing all 6E components except hFGF-2, with the addition of 500 nM SB-431542 (Selleckchem, cat. S1067) and 10 nM gastrin (Tocris, cat. 3006). […]
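Note: spheroids exposed to compounds for 7 days before readout.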
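Throughout, for viability, T/C: 100% = DMSO vehicle wells with luminescence normalized to vehicle control.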

- IC50 (second compound 0.0316 µM): 5870 nM
- IC50 (second compound 0.1 µM): 3910 nM
- IC50 (second compound 0.316 µM): < 31.6 nM
- IC50 (second compound 1 µM): < 31.6 nM
- IC50 (second compound 3.16 µM): < 31.6 nM
- IC50 (second compound 10 µM): < 31.6 nM
SMILES: C=C(F)C(=O)N1CCN(c2nc(OCC3CCCN3C)nc3c2CCN(c2cccc4cccc(Cl)c24)C3)CC1CC#N (configuration not stated) + CNC(=O)c1ccc(Nc2nc(OC3CCCC3)c3c(-c4ccc5nc(C)oc5c4)c[nH]c3n2)c(OC)c1
- viability, T/C (second compound 0.0316 µM, first compound 0.0316 µM): 116%
- viability, T/C (second compound 0.0316 µM, first compound 0.1 µM): 79.8%
- viability, T/C (second compound 0.0316 µM, first compound 0.316 µM): 116%
- viability, T/C (second compound 0.0316 µM, first compound 1 µM): 101%
- viability, T/C (second compound 0.0316 µM, first compound 3.16 µM): 127%
- viability, T/C (second compound 0.0316 µM, first compound 10 µM): 0.2%
- viability, T/C (second compound 0.1 µM, first compound 0.0316 µM): 57.3%
- viability, T/C (second compound 0.1 µM, first compound 0.1 µM): 58.6%
- viability, T/C (second compound 0.1 µM, first compound 0.316 µM): 53.5%
- viability, T/C (second compound 0.1 µM, first compound 1 µM): 68.6%
- viability, T/C (second compound 0.1 µM, first compound 3.16 µM): 68.4%
- viability, T/C (second compound 0.1 µM, first compound 10 µM): 0.17%
- viability, T/C (second compound 0.316 µM, first compound 0.0316 µM): 35.9%
- viability, T/C (second compound 0.316 µM, first compound 0.1 µM): 33.5%
- viability, T/C (second compound 0.316 µM, first compound 0.316 µM): 34.2%
- viability, T/C (second compound 0.316 µM, first compound 1 µM): 28.8%
- viability, T/C (second compound 0.316 µM, first compound 3.16 µM): 37.1%
- viability, T/C (second compound 0.316 µM, first compound 10 µM): 0.14%
- viability, T/C (second compound 1 µM, first compound 0.0316 µM): 20.6%
- viability, T/C (second compound 1 µM, first compound 0.1 µM): 26.6%
- viability, T/C (second compound 1 µM, first compound 0.316 µM): 29.4%
- viability, T/C (second compound 1 µM, first compound 1 µM): 22.3%
- viability, T/C (second compound 1 µM, first compound 3.16 µM): 22.9%
- viability, T/C (second compound 1 µM, first compound 10 µM): 0.13%
- viability, T/C (second compound 3.16 µM, first compound 0.0316 µM): 16.9%
- viability, T/C (second compound 3.16 µM, first compound 0.1 µM): 19.2%
- viability, T/C (second compound 3.16 µM, first compound 0.316 µM): 17.3%
- viability, T/C (second compound 3.16 µM, first compound 1 µM): 17.1%
- viability, T/C (second compound 3.16 µM, first compound 3.16 µM): 17.4%
- viability, T/C (second compound 3.16 µM, first compound 10 µM): 0.17%
- viability, T/C (second compound 10 µM, first compound 0.0316 µM): 17.4%
- viability, T/C (second compound 10 µM, first compound 0.1 µM): 18.9%
- viability, T/C (second compound 10 µM, first compound 0.316 µM): 16.9%
- viability, T/C (second compound 10 µM, first compound 1 µM): 16.4%
- viability, T/C (second compound 10 µM, first compound 3.16 µM): 18.4%
- viability, T/C (second compound 10 µM, first compound 10 µM): 0.23%

— PubChem BioAssay AID2060612 (Molecular Pharmacology Branch, DTP, NCI, 2025)
